These results are taken from patent publication US5962456A, “N-acylpiperazine derivative, anti-ulcer drug, and antibacterial drug” (Shiseido Co., Ltd., priority 1996, dated 1999).

Data set [1] concerns isolated gastric fundic gland. Put plainly: CAP: Acid Secretion Inhibition Test In Vitro ([14C]-aminopyrine uptake). Type of data set: cell-based, rabbit (male Japanese White). Particulars: final concentration 10^-5 M, histamine 10^-5 M, rabbit gastric fundic glands; for inhibition at 10 µM: Oryctolagus cuniculus, read-out: CAP acid secretion inhibitory rate. As to the method:
CAP: Acid Secretion Inhibition Test In Vitro
The acid secretion inhibitory activity in a cell level is studied. It can also be used for studying the mechanism of the effect. […]
ii-a) Preparation of Isolated Gastric Fundus Gland Suspension
First, an isolated gastric fundic gland sample was prepared. Namely, a male Japanese White rabbit (2.5 to 3 kg) was anesthetized to death with Nembutal™ and then the abdomen was incised. Immediately thereafter, the stomach was removed and, after its pyloric and cardiac antrum were severed, incised along its greater curvature into two sheets. The gastric contents adhering to the mucosal surface was washed out with ice-cooled PBS (-) and then carefully washed therein. The gastric wall was spread on a cork board with its mucosal surface facing up and the feed and mucus thereon were completely removed with sterile gauze. The mucosa was separated therefrom by a spatula and then collected in ice-cooled PBS (-). After being washed twice with PBS (-), the mucosa was minced into 2-3 mm^3 pieces by scissors. These pieces were further washed twice with a nutrient solution. […] Into 70 ml of the nutrient solution containing 1 mg/ml of collagenase, minced mucosal pieces were dispersed and intensely stirred in a conical flask with a stirrer at 37° C. for 40 to 60 minutes. During this period, 100% O2 was sprayed on the nutrient solution surface and the pH was appropriately measured such that it was immediately adjusted to pH 7.4, when the value was therebelow, with a base. The nutrient solution was added to the reaction solution so as to attain the total amount of about 200 ml. After being filtered through a mesh, the suspension was divisionally introduced into 50 ml centrifuge tubes and left for 15 minutes such that gastric fundic gland was deposited. The supernatant was repeatedly removed by an aspirator, dispersed in the nutrient solution, and then left such that the gastric fundic gland was washed three times. At this time, without using a pipette, the suspension was alternately introduced into two centrifuge tubes so as to effect dispersion. The number of cells was counted under microscope and adjusted to 1.6×10^6 cells/ml. […]
ii-b) [^14 C]-aminopyrine Uptake Test
Then, [^14 C]-aminopyrine uptake test was performed. After an Eppendorf tube was weighed, 10 μl (final concentration: 10^-5 M) of histamine dissolved in the above-mentioned nutrient solution, 10 μl (final concentration: 10^-5 M) of the test compound dissolved in DMSO, and 10 μl (final concentration: 0.05 μCi/ml) of [^14 C]-aminopyrine diluted with the nutrient solution were introduced therein and then 970 μl of the isolated gastric fundic gland suspension prepared above was added thereto. […] After being centrifuged for 30 minutes, 200 μl of its supernatant was collected into a mini-vial, while the rest was removed by an aspirator. The gland pellet was completely dried as the tube with its lid being opened was kept for one night in a drying oven at 80° C. and then the lid was closed and the weight was determined at room temperature. Then 100 μl of 1N KOH was added thereto and the tube with its lid being closed was treated at 60° C. for 1 to 2 hours so as to dissolve the pellet. Then, the contents thereof were transferred to a mini-vial. Into the mini-vial containing the supernatant or gland pellet, 4 ml of Atomlite™ was added and then the radioactivity was measured by a liquid scintillation counter. Here, after the radioactivity of the gland pellet was corrected by using a sample in which 20 mM of NaSCN was added so as to cancel the hydrogen ion concentration gradient, the integration ratio of aminopyrine specifically trapped by the gland pellet was calculated. This experiment was performed in duplicate. […]
ii-c) Calculation of the Accumulation Rate of Aminopyrine
Here, its principle will be briefly explained. In the isolated gastric fundic gland, acid is accumulated in a space between its secretory tubule and intraglandular cavity.

For the next data set, the system named is Helicobacter pyroli. Briefly: AHP: Antibacterial Activity Test Against Helicobacter pyroli (agar dilution). Type of data set: cell-based, HP NCTC 11637. As to conditions: for AHP antibacterial activity, colony number relative to control plate: MIC 100 μg/ml or more, plate with 250 mM solution of the sample compound; for MIC: Helicobacter, NCTC11637, 168 h, HP NCTC 11637, agar dilution, 7 days, read-out: AHP minimum inhibitory concentration (MIC). As to the method:
AHP: Antibacterial Activity Test Against Helicobacter pyroli i) Meaning The minimum inhibitory concentration (MIC) against Helicobacter pyroli (microaerophilic gram-negative bacterium which is supposed to deeply involve in pathogenesis, relapse, and recrudescence of ulcer, referred to as "HP" in the following) is measured so as to find out compounds which have antimicrobial activity against Helicobacter pyroli. ii) Method MICs were determined by the agar dilution method. The stock culture (-80° C.) of HP NCTC 11637 was thawed and cultured on tripticase soy agar supplemented with 5% sheep blood at 37° C. in an atmosphere of 5% O2, 10% CO2, and 85% N2. Grown colonies were transferred to the same plate and precultured for 3 days under the same condition. […] 10 μl of the bacterial suspension for inoculation (about 10^3 cfu) was inoculated on this plate and cultured for 7 days under the same condition as that of preculture. […] As the result of the comparison of these plates, when the number of the colony on the plate containing the sample compound was less than 90% with respect to that on the control plate, it was represented by "+". Contrary to this, when there was 90% or more, it was represented by "-".
For orientation: In agar dilution the substance is mixed into plates at graded concentrations.

Data set [2] can be described thus: MTT: Cell Damaging and Protecting Effect Test. The format is cell-based, rabbit (male Japanese White). Particulars: rabbit, gastric corpus mucosa cells, final concentration 10^-4 M, smaller value is better, read-out: MTT cell damaging rate. The text has this: (§1) MTT: Cell Damaging and Protecting Effect Test
(§2) It is confirmed that there is no toxicity in cell level. Those having a toxicity in cell level are inappropriate as an anti-ulcer drug.
(§3) A male Japanese White rabbit (2.5 to 3 kg) was anesthetized to death by Nembutal™ and, immediately thereafter, its stomach was removed. The greater curvature of the stomach was incised so as to remove the stomach contents therefrom. After the mucosal surface was washed with HBSS (Hanks' Balanced Salt Solution), the stomach in ice-cooled HBSS was transferred to a laboratory. Then, after the pyloric antrum was removed, the gastric corpus mucosa was separated by a spatula and then minced into 2 to 3 mm^3 pieces in BME (Basal Medium Eagle). Thereafter, these pieces were shaken at 120 to 130 cycles/minute for 15 minutes at 37° C. in BME 60 ml containing 280 U/ml of dispase and 30 to 50 U/ml of collagenase. Here, the concentration of collagenase was appropriately changed for each lot in view of the state of cells. The pieces were washed twice with EBSS (Earle's Balanced Salt Solution) containing 1 mM of EDTA and then shaken in MEM (Minimum Essential Medium) containing 1 mM of EDTA at 37° C. for 5 minutes. Subsequently, they were shaken in the dispase and collagenase having the same concentrations as those mentioned above for 15 minutes so as to remove the supernatant and then further shaken at 37° C. for 50 to 60 minutes at 120 to 130 cycles/minute. Then, after being washed twice with HBSS, Ham F12 containing 2% of Ultrocer G™ was used to attain the concentration of 1×10^6 cells/ml. Thus formed suspension was dispensed in each well of a 96-well plate by 200 μl. The plate was incubated in the atmosphere composed of 5% CO2 and 95% air at 37° C. for three days so as to attain a confluent state and then subjected to MTT assay.
(§4) The sample compound was dissolved in DMSO so as to attain a concentration of 10^-2 M and then diluted with HBSS containing 2% of Ultrocer G™ so as to attain a final concentration of 10^-4 M. To each group, which 8 wells were used for, 10 μl of MTT reagent was added immediately after 100 μl of the medium in each well was exchanged for same volume of the resulting solution of the sample compound. After being incubated in an atmosphere composed of 5% CO2 and 95% air at 37° C. for 4 hours, thus formed solution was centrifuged and then its supernatant was discarded. Subsequently, 100 μl of 100% ethanol was added to the residue so as to dissolve MTT formazan. Then, the absorbance (OD: 570 to 630) was measured by a microplate reader. This method utilizes a phenomenon in which MTT is changed to MTT formazan only by mitochondria of living cells so as to change color.
(§5) The cell damaging or cell protecting effect of the sample compound at the final concentration of 10^-4 M was expressed as cell damaging rate (%) as follows:
(§6) cell damaging rate (%)=(1-(absorbance in sample group/absorbance in control group))×100
(§7) Accordingly, the smaller rate value is better in the cell damage.

The test system of data set [3] is gastric corpus mucosa cells. Briefly: MTT: Cell Damaging and Protecting Effect Test. Type of data set: cell-based, rabbit (male Japanese White). Particulars: final concentration 10^-4 M, 4 hours; smaller value is better; 100 µM.
Description: as §1, §2, §3, §4, §5, §6, §7

The test system of a further data set is stress ulcer. Briefly: WIS: Restraint and Water Immersion Stress-Induced Ulcer Inhibition Test. The format is in vivo, rat (male Crj:SD or Slc:SD). Particulars: 100 mg/kg oral, rats, 7 hours restraint and water immersion (21° C.). As to the method:
WIS: Restraint and Water Immersion Stress-Induced Ulcer Inhibition Test
The degree of inhibition of the stress ulcer formation is tested.
Male Crj:SD or Slc:SD rats (6 to 7-week-old) were fasted overnight, but allowed free access to water. Each group has 5 to 8 of these rats. […] To a control group, the vehicle was administered. 10 minutes later, the rats were placed in a stress cage and immersed to the level of xipfoid process in a water bath (21° C.) for 7 hours. At the end of the stress, the rats were sacrificed by inhalation of ether or carbon dioxide. Then, the stomach of each was removed, inflated by injecting 10 ml of 5% formalin neutral buffer solution, and immersed in 1% formalin neutral buffer solution for 30 minutes or more to be fixed. The stomach was incised along the greater curvature and then the length of each erosion in the glandular portion was determined under dissecting microscope. The sum of the length of erosions per stomach was defined as ulcer index (UI).
The effect obtained when 100 mg/kg of the sample compound had been administered was expressed as ulcer formation inhibitory rate (%) as follows:
ulcer formation inhibitory rate (%)=(1-(UI in sample group/UI in control group))×100

Turning to `CC(C)Cc1cc(C(=O)N2CCN(Cc3ccccc3)CC2)ccc1OCc1ccccc1` [Example 9, 1-(4-benzyloxy-3-isobutyl)benzoyl-4-benzylpiperazine], the inhibition at 10 µM in data set [1] is 94.6%. Further, the “AHP antibacterial activity, colony number relative to control plate” value in the data set on Helicobacter pyroli is “+ (the number of the colony on the plate containing the sample compound was less than 90% with respect to that on the control plate)”. Also, the cytotoxicity at 4 h, 100 µM in data set [2] was -32%.

With `CC(C)=CCC/C(C)=C/COc1ccc(C(=O)N2CCN(CCNC(=O)c3ccc4c(c3)OCO4)CC2)cc1CC(C)C` [Example 2, 1-(4-geranyloxy-3-isobutyl)benzoyl-4-[2-(piperonyloylamino)ethyl]piperazin], the “CAP acid secretion inhibitory rate” value in data set [1] was 99.4%. Besides, in data set [3], the “MTT cell damaging rate” value is 22%.

As to `CC(C)Cc1cccc(C(=O)N2CCN(Cc3ccc4c(c3)OCO4)CC2)c1O` [Example 11], in data set [1], the inhibition at 10 µM is 93.1%. Also, the MIC in the data set with Helicobacter pyroli is < 3.13 µg/mL. Besides, the cytotoxicity at 4 h, 100 µM in data set [2] was 5%.

Take `CC(C)Cc1cc(C(=O)N2CCN(C(=O)NC(C)C)CC2)ccc1OCc1ccc(F)cc1` [Example 8, 1-[4-(4-fluorobenzyloxy)-3-isobutyl]benzoyl-4-(N-isopropylcarbamoyl)piperazine]: the inhibition at 10 µM in data set [1] is 36.9%. For the same molecule, the MIC in the data set on Helicobacter pyroli was < 3.13 µg/mL. Further, the cytotoxicity at 4 h, 100 µM in data set [2] was -93%.

On to `COc1cc(C(=O)N2CCN(Cc3ccccc3)CC2)cc(OC/C=C(\C)CCC=C(C)C)c1OC` [Example 7, 1-benzyl-4-(3,4-dimethoxy-5-geranyloxy)benzoylpiperazine], for which the inhibition at 10 µM in data set [1] came out at 99.6%. The cytotoxicity at 4 h, 100 µM in data set [2] was -44%.

For `CC(C)=CCOc1cc(C(=O)N2CCN(Cc3ccccc3)CC2)cc(OCC=C(C)C)c1OCC=C(C)C` [Example 6, 1-benzyl-4-(3,4,5-triprenyloxy)benzoylpiperazine], the inhibition at 10 µM in data set [1] came out at 99.5%. The cytotoxicity at 4 h, 100 µM in data set [2] is -16%.

With `CC(C)Cc1ccc(C(=O)N2CCN(C(c3ccccc3)c3ccccc3)CC2)cc1O` [Example 12, 1-diphenylmethyl-4-(3-hydroxy-4-isobutyl)benzoylpiperazine], the inhibition at 10 µM in data set [1] was found to be 41.9%. Moreover, the “AHP antibacterial activity, colony number relative to control plate” value with Helicobacter pyroli is “+ (the number of the colony on the plate containing the sample compound was less than 90% with respect to that on the control plate)”. In addition, the cytotoxicity at 4 h, 100 µM in data set [2] is -12%.

Regarding `COc1cc(C(=O)N2CCN(Cc3ccccc3)CC2)cc(OC)c1OC/C=C(\C)CCC=C(C)C` [Example 5, 1-benzyl-4-(3,5-dimethoxy-4-geranyloxy)benzoylpiperazine], the inhibition at 10 µM in data set [1] was 99.2%. For the same molecule, the “AHP antibacterial activity, colony number relative to control plate” value with Helicobacter pyroli is “+ (the number of the colony on the plate containing the sample compound was less than 90% with respect to that on the control plate)”. In addition, in data set [2], the cytotoxicity at 4 h, 100 µM is -50%.

Regarding `CC(C)=CCC/C(C)=C/COc1ccc(C(=O)N2CCN(CCOC(=O)c3ccncc3)CC2)cc1` [Example 3, 1-(4-geranyloxy)benzoyl-4-(2-isonicotinoyloxyethyl)piperazine], the inhibition at 10 µM in data set [1] came out at 101%. For the same molecule, in data set [2], the cytotoxicity at 4 h, 100 µM is -24%.

As to `CC(C)=CCC/C(C)=C/COc1ccc(C(=O)N2CCN(Cc3ccc4c(c3)OCO4)CC2)cc1` [Example 4, 1-(4-geranyloxy)benzoyl-4-piperonylpiperazine], in the data set with stress ulcer, the “WIS ulcer formation inhibitory rate” value turned out to be 43%. Also, the “AHP antibacterial activity, colony number relative to control plate” value in the data set on Helicobacter pyroli is given as “+ (the number of the colony on the plate containing the sample compound was less than 90% with respect to that on the control plate)”. The cytotoxicity at 4 h, 100 µM in data set [2] was -29%.
